≈ marks a conversion by molar mass, not a printed value. Where “and” joins values, the source holds several entries; their conditions need not be identical. Equal values may be shown once. Read-outs that look alike come from different tables or passages of the source.
Experiments:
[1] = target: T1, bovine testicular HAase (Bos taurus, UniProt Q2YDK3); assay: Hyaluronidase inhibition assay; assay type: biochemical; settings: for IC50 on HAase enzyme activity: nonlinear regression of inhibition rates at five concentrations (1-40 µg/mL); for inhibition at 40 µg/mL: read-out: Inhibition (%) of HAase enzyme activity
T1 sequence (Q2YDK3 36-553): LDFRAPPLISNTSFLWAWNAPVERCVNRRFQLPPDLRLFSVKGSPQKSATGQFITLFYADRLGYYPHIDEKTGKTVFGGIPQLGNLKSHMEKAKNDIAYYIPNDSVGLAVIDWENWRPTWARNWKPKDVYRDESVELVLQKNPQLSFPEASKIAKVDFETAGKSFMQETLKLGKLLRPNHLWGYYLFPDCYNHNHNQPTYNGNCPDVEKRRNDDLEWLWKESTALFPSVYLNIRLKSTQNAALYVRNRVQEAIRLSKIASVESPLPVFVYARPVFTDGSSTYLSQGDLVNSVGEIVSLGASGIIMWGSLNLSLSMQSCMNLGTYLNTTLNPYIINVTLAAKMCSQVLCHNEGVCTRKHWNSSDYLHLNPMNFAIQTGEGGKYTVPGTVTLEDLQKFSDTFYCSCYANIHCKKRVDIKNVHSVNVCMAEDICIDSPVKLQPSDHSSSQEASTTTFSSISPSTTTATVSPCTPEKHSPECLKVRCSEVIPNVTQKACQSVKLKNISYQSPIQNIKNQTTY
Procedure: Inhibitory effect on bovine testicular HAase activity was evaluated using a reported method with minor modifications. It is noted that long HA chains and HAase may form of non-active complexes at low ionic condition, which can impede the catalytic activity of HAase and disrupt the HAase inhibition assay. This interference can be avoided by adding a positively charged protein to balance the ionic strength of the reaction system and recover the activity of HAase[24]. […] […] Then hyaluronic acid (HA; 100 μL) was added to the pre-incubated mixture at 37 °C for 45 min. […] The absorbance was then measured at a wavelength of 600 nm using a microplate reader (SpectraMax M2, Molecular Devices Corp., operated by SoftmaxPro v.4.6 software, Sunnyvale, CA, USA). Each sample was tested at least in three replicates. […] The IC50 value of each sample was determined by analysing its inhibition rates at different concentrations with a nonlinear regression algorithm by GraphPad Prism.

[2] = test system: HAase; assay: Lineweaver-Burk plot, enzyme kinetics of HAase inhibition; assay type: biochemical, bovine; settings: four concentrations (5–40 µg/mL); HA 0.125–2.0 µM (6c), 0.2–1.0 µM (6g)
Procedure: The inhibition type of test compounds was determined by the Lineweaver-Burk plots.

[3] = test system: HaCaT cells; assay: Cellular reactive oxygen species (ROS), H2O2-induced, DCFDA probe; assay type: cell-based, human; settings: 10 µg/mL for 24 h, then H2O2 200 µM for 1 h
Procedure: HaCaT cells were seeded in 96-well plates at 6 × 10^3 cells per well and allowed to attach for 12 h. Then the cells were incubated with test samples (10 µg/mL) for 24 h. Next, the cell culture medium was removed and fresh phosphate buffer solution (PBS; 100 µL) containing a fluorescent probe 2′,7′-dichlorofluorescin diacetate (DCFDA; 20 µM) was added to the cells and incubated for 20 min. Then the cells were treated with H2O2 (100 µL; 200 µM) for 1 h followed by measuring the fluorescence intensity of each well with excitation and emission wavelengths of 485 and 525 nm, respectively, using a SpectraMax M2 plate reader.

[4] = Cell viability, XTT assay; assay type: cell-based; settings: human, HaCaT keratinocyte cells
Procedure: Human keratinocytes (HaCaT) cells were purchased from Sigma Aldrich Co. (St. Louis, MO, USA) and cultured in Dulbecco’s modified Eagle’s medium (DMEM; Life Technologies; Gaithersburg, MD, USA) with 10% fetal bovine serum (Gibico; Grand Island, NY, USA) at 37 °C in the presence of 5% CO2. The cell viability of HaCaT treated with or without OA and its derivatives was measured by the XTT assay according to manufacturer’s instructions (XTT Cell proliferation Kit II; Roche, USA). Briefly, HaCaT cells were seeded in 96-well plates at 5 × 10^3 cells per well and allowed to attach for 12 h. Then OA and its derivatives (100 µL; 10 µg/mL) were incubated with cells for 24 h, followed by adding the XTT reagent (50 µL; 0.3 mg/mL) in each well and incubated for 4 h. The absorbance of each well was measured at wavelengths of 450 nm using a SpectraMax M2 plate reader (Molecular Devices; Sunnyvale, CA, USA).

Row | Structure (SMILES) | Inhibition (%) of HAase enzyme activity ([1]; at 40 μg/mL) | IC50 on HAase enzyme activity [1] [µg/mL] | other results
1 | CC1(C)CCC2(C(=O)O)CCC3(C)C(=CCC4C5(C)Cc6c([nH]c7c(Cl)cccc67)C(C)(C)C5CCC43C)C2C1 (stereo not shown) [Compound 6g] | 98.1 ± 0.4% | 9.57 (≈ 17 µM) | Inhibition type (Lineweaver-Burk plot) [2]: mixed type of competitive and non-competitive inhibitions
2 | CC1(C)CCC23CC[C@]4(C)C(OC2=O)(C(F)CC2[C@@]5(C)CCC(=O)C(C)(C)C5CC[C@]24C)C3C1 (stereo partly shown) [Compound 4] |  |  | inhibition at 40 µg/mL ([1]; at 40 μg/mL): 37.3 ± 1.4%
3 | Cc1cc(C)c2[nH]c3c(c2c1)CC1(C)C(CCC2(C)C1CC=C1C4CC(C)(C)CCC4(C(=O)O)CCC12C)C3(C)C (stereo not shown) [Compound 6d] | 93.5 ± 3.9% | 11.62 (≈ 20.9 µM) | 
4 | CC1(C)CCC2(C(=O)O)CCC3(C)C(=CCC4C5(C)Cc6c([nH]c7c(F)cc(F)cc67)C(C)(C)C5CCC43C)C2C1 (stereo not shown) [Compound 6c] | 86.3 ± 3.3% | 9.97 (≈ 17.7 µM) | Inhibition type (Lineweaver-Burk plot) [2]: mixed type of competitive and non-competitive inhibitions; decrease of ROS level vs H2O2-exposed cells [3]: 23.6%
5 | CC1(C)CC[C@]2(C(=O)O)CC[C@]3(C)C(=CCC4[C@@]5(C)CCC(=O)C(C)(C)C5CC[C@]43C)C2C1 (stereo partly shown) [Compound 2] |  |  | inhibition at 40 µg/mL [1]: 15.9 ± 4.3%
6 | CC1(C)CCC2(C(=O)O)CCC3(C)C(=CCC4C5(C)Cc6c([nH]c7c(F)cccc67)C(C)(C)C5CCC43C)C2C1 (stereo not shown) [Compound 6b] | 100.2% and 100.4 ± 2.4% | 12.58 (≈ 23 µM) | 
7 | CC1(C)CCC2(C(=O)O)CCC3(C)C(=CCC4C5(C)Cc6c([nH]c7ccc(Br)cc67)C(C)(C)C5CCC43C)C2C1 (stereo not shown) [Compound 6e] | 83.7 ± 3.3% | 11.60 (≈ 19.1 µM) | 
8 | CC1(C)CCC2(C(=O)O)CCC3(C)C(=CCC4C5(C)Cc6c([nH]c7c(Br)cccc67)C(C)(C)C5CCC43C)C2C1 (stereo not shown) [Compound 6f] | 100.6 ± 3.6% | 10.14 (≈ 16.7 µM) | 
9 | CC1(C)CC[C@]2(C(=O)O)CC[C@]3(C)C(=CC[C@@H]4[C@@]5(C)CC[C@H](O)C(C)(C)[C@@H]5CC[C@]43C)[C@@H]2C1 [Compound 1, Oleanolic acid, reference compound] |  |  | inhibition at 40 µg/mL [1]: 59.3 ± 2.4%; viability at 24 h, 10 µg/mL [4]: 96.7%
10 | CC1(C)CCC2(C(=O)O)CCC3(C)C(=CCC4C5(C)Cc6c([nH]c7c([N+](=O)[O-])cccc67)C(C)(C)C5CCC43C)C2C1 (stereo not shown) [Compound 6a] | 100.9 ± 4.3% | 16.23 (≈ 28.3 µM) | 
11 | CC1(C)CCC23CC[C@]4(C)C(OC2=O)(C(F)CC2[C@@]5(C)CC[C@H](O)C(C)(C)C5CC[C@]24C)C3C1 (stereo partly shown) [Compound 3] |  |  | inhibition at 40 µg/mL ([1]; at 40 μg/mL): 12.7 ± 3.9%
